Counter-ions that a name gives are not always drawn.
Biological target: T1, 5-hydroxytryptamine receptor 3A/3B (Mus musculus, UniProt P23979+Q9JHJ5)
T1 sequence (P23979 whole entry): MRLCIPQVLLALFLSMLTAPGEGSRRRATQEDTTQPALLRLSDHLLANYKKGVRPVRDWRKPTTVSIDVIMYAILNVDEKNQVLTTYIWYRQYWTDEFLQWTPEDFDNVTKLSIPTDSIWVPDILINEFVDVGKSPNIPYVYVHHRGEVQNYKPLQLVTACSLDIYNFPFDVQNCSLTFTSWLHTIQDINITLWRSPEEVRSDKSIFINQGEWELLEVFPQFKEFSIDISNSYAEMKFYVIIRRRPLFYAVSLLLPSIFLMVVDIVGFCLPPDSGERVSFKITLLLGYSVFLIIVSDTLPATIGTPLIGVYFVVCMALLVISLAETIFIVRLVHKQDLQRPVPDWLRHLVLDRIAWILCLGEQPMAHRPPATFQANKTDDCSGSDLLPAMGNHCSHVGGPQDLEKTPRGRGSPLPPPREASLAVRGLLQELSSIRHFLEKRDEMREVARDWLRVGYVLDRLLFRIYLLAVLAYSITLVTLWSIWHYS
T1 sequence (Q9JHJ5 whole entry): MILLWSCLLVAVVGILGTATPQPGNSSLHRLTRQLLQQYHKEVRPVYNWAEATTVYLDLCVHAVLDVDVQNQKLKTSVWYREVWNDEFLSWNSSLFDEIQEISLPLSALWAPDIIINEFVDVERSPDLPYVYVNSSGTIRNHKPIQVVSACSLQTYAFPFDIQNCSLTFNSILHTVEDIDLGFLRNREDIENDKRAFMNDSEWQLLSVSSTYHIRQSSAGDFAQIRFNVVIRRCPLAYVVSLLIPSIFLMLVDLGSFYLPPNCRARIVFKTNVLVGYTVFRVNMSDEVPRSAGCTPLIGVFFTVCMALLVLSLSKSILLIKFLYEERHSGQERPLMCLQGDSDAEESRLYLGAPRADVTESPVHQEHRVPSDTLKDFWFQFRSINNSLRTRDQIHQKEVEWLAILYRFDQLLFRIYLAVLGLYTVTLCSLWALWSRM
Assay: Binding affinity towards 5-hydroxytryptamine 3 receptor was determined by using [3H]-ICS 205-930 as radioligand in mouse N1E 115 cells

| Structure (SMILES) | Kd [nM] |
| --- | --- |
| c1ccc2nc(N3CCNCC3)ccc2c1 [2-Piperazin-1-yl-quinoline (Quipazine)] | 2 |
| CCN(CC)CCNC(=O)c1cc(Cl)c(N)cc1OC [4-amino-5-chloro-N-[2-(diethylamino)ethyl]-2-methoxy-benzamide;hydrochloride] | 224 |
| CN1[C@@H]2CC[C@H]1C[C@@H](OC(=O)c1c[nH]c3ccccc13)C2 [(3-ENDO)-8-METHYL-8-AZABICYCLO[3.2.1]OCT-3-YL 1H-INDOLE-3-CARBOXYLATE] | 0.813 |
| O=C(OC1CC2CCC(C1)N2)c1c[nH]c2ccccc12 (stereo unspecified) [NORTROPISETRON] | 0.724 |
| Cc1nccn1CC1CCc2c(c3ccccc3n2C)C1=O (stereo unspecified) [NSC_68647] | 13 |
| CN1[C@@H]2CC[C@H]1C[C@@H](OC(=O)c1cc(Cl)cc(Cl)c1)C2 [TROPANYL 3,5-DICHLOROBENZOATE] | 6.2 |

Source: BindingDB's records for doi:10.1021/jm00168a011 (Merrell Dow Research Institute, 1990)
